Data on 25 molecules can be found in ChEMBL document CHEMBL5331133, “Discovery of AZD4747, a Potent and Selective Inhibitor of Mutant GTPase KRASG12C with Demonstrable CNS Penetration” (J Med Chem, 2023).

Structures are written as SMILES. Some results are limits rather than exact numbers.

The nature of data set [1]: Lipophilicity, logD of compound at 7.4. The conditions noted are these: octanol/water, pH 7.4, logD.
Data set [2] can be described thus: […] stability in rat hepatocyte assessed as intrinsic clearance measured per million of cells. The data set is classed as ADME, cell-based. The conditions noted are these: hepatocytes.
The next data set addresses GTPase KRas (Homo sapiens, UniProt P01116, G12C).
The next data set in a line: in vitro. The conditions noted are these: human, liver microsomes, CLH. (In general: Liver microsomes are vesicles of endoplasmic reticulum, rich in cytochrome P450 enzymes.)
Data set [3] can be described thus: Unbound brain-to-plasma concentration ratio in Wistar Han rat at 2.3 microM/Kg, iv and measured after 4 hrs. The conditions noted are these: read-out: K(p,uu,brain). The data set is classed as ADME, organism-based.
In a further data set the test system is NCI-H358. The data set is described as follows: Antiproliferative activity against human NCI-H358 cells harboring KRAS G12C mutant cultured as 3D spheroids assessed as reduction in cell proliferation incubated for 3 days by CellTiter-Glo 3D reagent based assay. The data set is classed as functional. The conditions noted are these: NCI-H358, 72 h. A general note: In ATP-based viability assays light output follows the ATP content of the culture.

In the next data set the test system is MDR1 and BCRP. The experiment in a line: Efflux ratio of apparent permeability in dog MDCK cells transfected with MDR1 and BCRP at 0.1 uM. The data set is classed as ADME, cell-based, Canis lupus familiaris.
Data set [4] can be described thus: Dissociation constant, pKa of the compound. The data set is classed as physicochemical.

GTPase KRas, sequence (P01116 whole entry G12C): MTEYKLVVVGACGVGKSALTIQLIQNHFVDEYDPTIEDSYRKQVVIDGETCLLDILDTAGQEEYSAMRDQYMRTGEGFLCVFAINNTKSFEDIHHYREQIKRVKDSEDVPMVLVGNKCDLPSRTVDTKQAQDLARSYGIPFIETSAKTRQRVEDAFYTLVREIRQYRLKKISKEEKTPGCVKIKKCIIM
Description for in vitro: Microsomal stability in human liver microsomes assessed as intrinsic clearance

A word on the logD: it is the decadic logarithm of the distribution of all forms, ionised or not, between an organic phase and buffer at a given pH. Lower therefore signals a more hydrophilic compound. The IC50 is the concentration at which inhibition is half-maximal. As a reminder, the microsomal CLint is the rate of metabolic loss divided by the concentration. The molecule `C=CC(=O)N1CCN2C(=O)c3cc(OCCOC)c(-c4c(O)cccc4Cl)c(F)c3OC[C@H]2C1` had a logD in data set [1] of 2. The CLH in data set [2] was found to be 48 µL/min. Besides, the half-maximal inhibitory concentration (IC50) against GTPase KRas was 99 nM. The molecule further returned a microsomal CLint in the data set “in vitro” of 41 µL/min/mg.
As for `C=CC(=O)N1CCN2Cc3cc(C(F)F)c(-c4c(O)cccc4Cl)c(F)c3OC[C@H]2C1`, the logD in data set [1] is 3. The CLH in data set [2] came to 99 µL/min. On GTPase KRas, this molecule displayed an IC50 of 130 nM. Moreover, the microsomal CLint in “in vitro” came out at 63 µL/min/mg.
In data set [1], `C=CC(=O)N1CCN(c2nc(=O)n(-c3c(C)ccnc3C(C)C)c3nc(-c4c(O)cccc4F)c(F)cc23)[C@@H](C)C1` [SOTORASIB] showed a logD of 2.3. Further, in data set [2], the CLH came out at 18 µL/min. Further, the Kp uu at 4 h in data set [3] turned out to be 0.01. Moreover, the IC50 with NCI-H358 was found to be 1 nM. Further, the microsomal CLint in “in vitro” worked out at 36 µL/min/mg.
Usually efflux ratio stands for a quotient of directional permeabilities that is used to spot active efflux. Regarding `C=CC(=O)N1CCN2Cc3ccc(-c4c(C)ccc5[nH]ncc45)c(Cl)c3OC[C@H]2C1`, in data set [1], the logD was found to be 3.2. The CLH in data set [2] worked out at 156 µL/min. The efflux ratio at 0.1 µM in the data set with MDR1 and BCRP worked out at 0.4. In data set [3], the Kp uu at 4 h was 0.24. Further, on GTPase KRas, 332 nM corresponded to half-maximal inhibition (IC50). Also, in the data set “in vitro”, the microsomal CLint was 86 µL/min/mg.
Molecule `C=CC(=O)N1C[C@H]2CCOc3c(Cl)c(-c4c(O)cccc4F)c(F)c4ncnc(c34)N2C[C@H]1C` gave a logD in data set [1] of 3.2. In addition, the CLH in data set [2] turned out to be 41 µL/min. The efflux ratio at 0.1 µM with MDR1 and BCRP turned out to be 37.2. Also, in data set [3], the Kp uu at 4 h is 0.06. Also, the IC50 against GTPase KRas was 3 nM. This molecule displayed a microsomal CLint in “in vitro” of 26 µL/min/mg.
Turning to `C=CC(=O)N1CCN2Cc3cc(OC(F)F)c(-c4c(O)cccc4Cl)c(F)c3OC[C@H]2C1`, the logD in data set [1] was determined as 2.7. Besides, the CLH in data set [2] was determined as 143 µL/min. The same molecule gave an IC50 against GTPase KRas of 160 nM. In the data set “in vitro”, this molecule displayed an intrinsic metabolic clearance (microsomal CLint) of 18 µL/min/mg.
As for `C=CC(=O)N1CCN2Cc3ccc(-c4c(C)ccc5[nH]ncc45)c(Cl)c3OC[C@@H]2C1`, the logD in data set [1] worked out at 3.5. Moreover, the CLH in data set [2] worked out at 130 µL/min. Further, the efflux ratio at 0.1 µM with MDR1 and BCRP stood at 0.9. In data set [3], the Kp uu at 4 h was found to be 0.41. On GTPase KRas, this molecule registered an IC50 of 1310 nM. In “in vitro”, this molecule gave a microsomal CLint of over 294 µL/min/mg.
`C=CC(=O)N1CCN2Cc3ccc(-c4c(O)cccc4F)c(Cl)c3OC[C@H]2C1`: the CLH in data set [2] stood at 52 µL/min. In addition, the efflux ratio at 0.1 µM in the data set on MDR1 and BCRP is 0.8. This molecule showed an IC50 on GTPase KRas of 231 nM. In “in vitro”, this molecule displayed a microsomal CLint of 33 µL/min/mg.
With `C=CC(=O)N1CCN2Cc3cc(F)c(-c4c(O)cccc4F)c(Cl)c3OC[C@H]2C1`, the logD in data set [1] turned out to be 2.8. The CLH in data set [2] came out at 42 µL/min. Also, in the data set with MDR1 and BCRP, the efflux ratio at 0.1 µM is 1.2. The same molecule returned an IC50 on GTPase KRas of 149 nM. In “in vitro”, this molecule registered a microsomal CLint of 8 µL/min/mg.
Take `C#Cc1cc(CN2CCN(C(=O)C=C)CC2)cc(F)c1-c1c(O)cccc1Cl`: the logD in data set [1] was 3.2. Moreover, in data set [2], the CLH was determined as 38 µL/min. Also, the midpoint of inhibition against GTPase KRas, the IC50, lay at 13600 nM. In the data set “in vitro”, the microsomal CLint stood at 18 µL/min/mg.
Regarding `C=CC(=O)N1CCN2c3ncnc4cc(-c5c(C)ccc6[nH]ncc56)c(Cl)c(c34)OC[C@@H]2C1`, in data set [2], the CLH was determined as 109 µL/min. This molecule came in with a microsomal CLint in the data set “in vitro” of 58 µL/min/mg.
As for `C=CC(=O)N1CCN2Cc3cc(OC)c(-c4c(O)cccc4Cl)c(F)c3OC[C@H]2C1`, the logD in data set [1] turned out to be 2.2. Also, the CLH in data set [2] worked out at 59 µL/min. Besides, in the data set with MDR1 and BCRP, the efflux ratio at 0.1 µM turned out to be 1.9. This molecule also had an IC50 at GTPase KRas of 74 nM. The same molecule came in with a microsomal CLint in “in vitro” of 15 µL/min/mg.
Molecule `C=CC(=O)N1CCN2Cc3cc(F)c(-c4c(C)cccc4O)c(F)c3OC[C@H]2C1` yielded a logD in data set [1] of 2.4. In data set [2], the CLH worked out at 29 µL/min. Also, in the data set with MDR1 and BCRP, the efflux ratio at 0.1 µM is 1.2. In data set [3], the Kp uu at 4 h is 0.15. The molecule further had an IC50 at GTPase KRas of 90 nM. Besides, the microsomal CLint in the data set “in vitro” came to 19 µL/min/mg.
As to `C=CC(=O)N1CCN2Cc3cc(C#N)c(-c4c(O)cccc4Cl)c(F)c3OC[C@H]2C1`, the logD in data set [1] is 2.5. Besides, the CLH in data set [2] is 54 µL/min. For the same molecule, the efflux ratio at 0.1 µM in the data set with MDR1 and BCRP was found to be 6.5. Besides, at GTPase KRas, inhibition was half-maximal at 16 nM (IC50). In addition, the intrinsic metabolic clearance (microsomal CLint) in “in vitro” was 13 µL/min/mg.
For the molecule `C=CC(=O)N1CCN2Cc3cc(OC4CC4)c(-c4c(O)cccc4Cl)c(F)c3OC[C@H]2C1`, in data set [1], the logD stood at 2.6. The CLH in data set [2] worked out at 174 µL/min. On GTPase KRas, this molecule displayed an IC50 of 81 nM. This molecule had a microsomal CLint in the data set “in vitro” of 25 µL/min/mg.
As a reminder, the pKa is the negative logarithm of the acid dissociation constant. Lower therefore signals a group that gives up its proton readily. The molecule `C#Cc1cc2c(c(F)c1-c1c(O)cccc1Cl)OC[C@H]1CN(C(=O)C=C)CCN1C2` yielded a logD in data set [1] of 2.7. In addition, the CLH in data set [2] came to 23 µL/min. For the same molecule, the efflux ratio at 0.1 µM in the data set with MDR1 and BCRP was 1. In addition, the Kp uu at 4 h in data set [3] came to 0.05. Moreover, in data set [4], the pKa turned out to be 3.9. Further, at GTPase KRas, the IC50 is 19 nM. The same molecule registered an intrinsic clearance (microsomal CLint) in “in vitro” of 16 µL/min/mg.
`C=C(F)C(=O)N1CCN(c2nc(OC[C@@H]3CCCN3C)nc3c2CCN(c2cccc4cccc(Cl)c24)C3)C[C@@H]1CC#N` [ADAGRASIB] had a logD in data set [1] of 3.6. The CLH in data set [2] amounted to 12 µL/min. Moreover, the Kp uu at 4 h in data set [3] worked out at 0.01. In the data set on NCI-H358, the IC50 stood at 6 nM. The same molecule gave a microsomal CLint in the data set “in vitro” of 80 µL/min/mg.
`C=CC(=O)N1CCN(Cc2cc(F)c(-c3c(O)cccc3Cl)c(F)c2)CC1` had a logD in data set [1] of 3.3. Besides, the CLH in data set [2] came out at 122 µL/min. At GTPase KRas, inhibition was half-maximal at 7820 nM (IC50). The molecule further came in with a microsomal CLint in “in vitro” of under 3 µL/min/mg.
For `C=CC(=O)N1CCN2Cc3cc(C4CC4)c(-c4c(O)cccc4Cl)c(F)c3OC[C@H]2C1`, in that order: 3.2, 101 µL/min, 22 nM and 97 µL/min/mg.
`C=CC(=O)N1CCN2Cc3ccc(-c4c(C)ccc5[nH]ncc45)c(Cl)c3OCCC2C1` (stereo in doubt; 19) registered a logD in data set [1] of 3.2. The CLH in data set [2] was 234 µL/min. In addition, in the data set on MDR1 and BCRP, the efflux ratio at 0.1 µM was 1.4. This molecule returned an IC50 against GTPase KRas of 8290 nM. Also, in the data set “in vitro”, the intrinsic metabolic clearance (microsomal CLint) came to 294 µL/min/mg.
For `C=CC(=O)N1CCN2C(=O)c3ccc(-c4c(C)ccc5[nH]ncc45)c(Cl)c3OC[C@@H]2C1`, in data set [1], the logD was found to be 2.8. Also, the CLH in data set [2] came to 93 µL/min. Also, the efflux ratio at 0.1 µM in the data set with MDR1 and BCRP is 1.4. This molecule gave an IC50 on GTPase KRas of 4300 nM. Moreover, the intrinsic clearance (microsomal CLint) in the data set “in vitro” amounted to 54 µL/min/mg.
For `C=CC(=O)N1CCN2Cc3cc(F)c(-c4c(O)cccc4Cl)c(F)c3OC[C@H]2C1.O`, the logD in data set [1] was determined as 2.8. Also, the CLH in data set [2] stood at 20 µL/min. Also, the efflux ratio at 0.1 µM in the data set on MDR1 and BCRP amounted to 0.7. In addition, the Kp uu at 4 h in data set [3] stood at 0.11. Besides, the pKa in data set [4] was found to be 3.9. On GTPase KRas, half-maximal inhibition (IC50) required 43 nM. Also, the microsomal CLint in “in vitro” is under 7 µL/min/mg.
`C=CC(=O)N1CCN2Cc3cc(F)c(-c4c(O)cccc4F)c(F)c3OC[C@H]2C1`: in data set [1], the logD amounted to 2.5. In data set [2], the CLH came out at 18 µL/min. Moreover, it took 279 nM to reach half-maximal inhibition against GTPase KRas (IC50). Further, the microsomal CLint in the data set “in vitro” came out at 5 µL/min/mg.
In the case of `C=CC(=O)N1CCN2Cc3cc(OCCN(C)C)c(-c4c(O)cccc4Cl)c(F)c3OC[C@H]2C1`, the logD in data set [1] came out at 1. Moreover, the CLH in data set [2] was determined as 8 µL/min. For the same molecule, the efflux ratio at 0.1 µM in the data set on MDR1 and BCRP was 12.4. Further, on GTPase KRas, inhibition was half-maximal at 110 nM (IC50). Besides, the microsomal CLint in “in vitro” turned out to be 10 µL/min/mg.
In data set [1], `C=CC(=O)N1CCN2Cc3cc(Cl)c(-c4c(O)cccc4Cl)c(F)c3OC[C@H]2C1` yielded a logD of 3.2. The CLH in data set [2] turned out to be 44 µL/min. Also, the efflux ratio at 0.1 µM in the data set with MDR1 and BCRP was 0.6. Moreover, the IC50 against GTPase KRas is 29 nM. For the same molecule, the microsomal CLint in “in vitro” is 17 µL/min/mg.
